PMC12118337, “Development of a Peptide Inhibitor Targeting the C‐SH2 Domain of the SHP2 Phosphatase” (Chembiochem, 2025)
Residues, ends and D or L forms follow the SMILES beside them. *: point of attachment. 5FAM = O=C1OC2(c3ccc(O)cc3Oc3cc(O)ccc32)c2ccc(C(=O)*)cc21; X1 = O=C(O)C(C(=O)O)*

Target: T1, SHP2 PTP domain (Homo sapiens, UniProt Q06124)
T1 construct: SHP2 N-SH2 domain (1–105), C-SH2 domain (106–220), PTP domain (224–541) and; His6 (pETM22 vector) (N, cleaved yes); made in house; host or cells: E. coli BL21(DE3) Tuner
T1 sequence (Q06124 224-541): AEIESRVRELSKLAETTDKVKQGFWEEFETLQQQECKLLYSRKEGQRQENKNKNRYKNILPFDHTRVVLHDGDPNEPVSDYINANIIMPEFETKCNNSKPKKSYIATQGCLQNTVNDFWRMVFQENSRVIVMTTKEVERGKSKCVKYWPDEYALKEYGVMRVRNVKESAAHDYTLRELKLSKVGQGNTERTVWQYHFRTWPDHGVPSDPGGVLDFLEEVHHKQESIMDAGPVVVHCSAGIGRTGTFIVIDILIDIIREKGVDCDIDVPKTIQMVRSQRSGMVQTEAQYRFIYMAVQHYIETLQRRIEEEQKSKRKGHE
Experiment: FP binding assay, SHP2 PTP domain
Conditions: 100 nM peptide, increasing C-SH2, N-SH2 or PTP domain
Procedure: buffer and stored in 5 mL binding buffer at 4°C. His-tagged 3C protease (0.5 mg; EMBL) was added to the pooled eluted fractions and dialysed using Spectra Por Dialysis Tubing (MWCO 6-8 kDa, 23 mm; Spectrum Labs) in 1 L of binding buffer at 4°C for 3 hours, then overnight in fresh buffer. A new column was prepared by loading 2 mL Ni-NTA Agarose (Invitrogen) as a 50% slurry in EtOH. The column was washed with 10 mL H2O to remove the EtOH and equilibrated with 10 mL binding buffer. The protein/3C protease mixture was loaded onto the column and incubated for 1 hour at 4°C on a rocker. […] Protein purification was monitored by SDS-PAGE using NuPAGE 4-12% Bis-Tris Protein Gels (Invitrogen) run in MOPS buffer (50 mM MOPS, 50 mM Tris-HCl pH 7.7, 1 mM EDTA, 0.1% SDS) followed by Coomassie staining using Coomassie Brilliant Blue (Roth). […]
4. Fluorescence polarization
Fluorescence polarization (FP) was used to measure the binding of FAM-labelled peptides to the SHP2 C-SH2, SHP2 N-SH2, SHP2 PTP, CSK SH2 or Src SH2 domains. […]
concentration of 100 nM in a final volume of 200 µL. […] The FP was immediately measured on a Synergy H1 Microplate Reader (BioTek) with the excitation and emission monitored at 485 nm and 528 nm, respectively, over 30 minutes. FP values were automatically calculated by the Gen5 3.03 (BioTek) software associated with the microplate reader. […]

CC[C@H](C)[C@H](NC(=O)[C@@H](NC(=O)[C@H](C)NC(=O)[C@H](Cc1ccc(OC(C(=O)O)C(=O)O)cc1)NC(=O)[C@H](CCC(=O)O)NC(=O)[C@@H](NC(=O)[C@H](CCC(N)=O)NC(=O)c1ccc2c(c1)C(=O)OC21c2ccc(O)cc2Oc2cc(O)ccc21)[C@@H](C)O)[C@@H](C)O)C(=O)N[C@@H](CCCCN)C(=O)N[C@@H](Cc1c[nH]cn1)C(=O)N1CCC[C@H]1C(N)=O [peptide 26] (5FAM-QTEY(X1)ATIKHP-NH2)
binding selectivity for C‐SH2 over N‐SH2 and PTP domains: maintained binding selectivity
